For one series, the system named is Whole Blood. Kind of series: Ex vivo whole blood incubation (Study 6), immune cell counts. The format is cell-based. Conditions: concentrations between 100 uM up to 500 uM. Here is the method: (§1) The profound in vivo activity that we observe in naïve mice and in cancer models must be mediated through the mobilized supercharged Natural Killer T cells, T cells and dendritic cells after AVM0703 HED 6 mg/kg and higher.

For series [1], the system named is lymphocytes, monocytes, NKT cells, T cells, dendritic cells. To be noted: in vivo, HED of 18 mg/kg and higher.
The next series concerns Splenocytes. Kind of series: Ex vivo splenocyte incubation (Study 24), viability by flow cytometry. Conditions: concentrations between 100 uM up to 500 uM. In kind it is cell-based. Here is the method:
as §1
Splenocytes were cultured for 16 hours prior to assay execution.
(In general: A flow cytometer gives signals particle by particle.)

For series [2] the following is noted: in vivo; cited from earlier work.

For `C[C@@H]1C[C@H]2[C@@H]3CCC4=CC(=O)C=C[C@]4(C)[C@@]3(F)[C@@H](O)C[C@]2(C)[C@@]1(O)C(=O)CO` [dexamethasone base, dexamethasone], the “response of ex vivo whole blood” value in the series on Whole Blood was “no response”. Besides, in series [1], the “effects on colon, pancreas or bone” value is reported as “no effects”. Further, the “response of isolated splenocytes” value with Splenocytes is reported as “no response”.
With `C[C@]12C=CC(=O)C=C1CC[C@@H]1[C@@H]2C(=O)C[C@@]2(C)[C@H]1CC[C@]2(O)C(=O)CO` [prednisone], the biologic half-life entry in series [2] was “about 20 hours”.

The values are drawn from US20230172950A1 (priority 2020, published 2023).
